Here are results for 48 compounds from patent US20250154105A1, “POLYCYCLIC COMPOUND AND USE THEREOF” (TYK MEDICINES, INC., priority 2021, published 2025).

For test [1], the system named is human pleural mesothelioma cells NCI-H226. The experiment in a line: Cell anti-proliferation experiment (CCK8), NCI-H226. It counts as cell-based. The method in brief: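 Viability was measured by CCK-8 (3 h, A450) after 3-day treatment with 0.15–333.33 nM compound in 0.1% DMSO medium. Curve-fitted IC50 was based on viability normalised to no-drug and cell-free controls.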

Another test relates to YAP-TEAD. The experiment in a line: YAP-TEAD inhibitor activity by Nano luciferase method (8xGTiiC-nLuc reporter in 293T cells). It counts as cell-based. The following applies: Homo sapiens, HEK-293T, 48 hours incubation, read-out: Nano-luciferase detection (IC50). The gist of the method:
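293T cells transiently transfected with pGL3B-8xGTiiC-nLuc-CMV-fLuc, seeded 2000 cells/well, then treated 48 h at 37 °C with compounds in 1:3.16 dilution series (top 10,000 nM). Nano luciferase signal read after cell lysis; IC50 from percent of 0 nM control.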

What is called IC50 is the concentration that gives 50% inhibition. In the case of `C[C@H](NC(=O)c1cnc2c(c1)c1ccccc1c(=O)n2-c1ccc(C(F)(F)F)cc1)c1ccccn1` [Example T-244], the IC50 (in test [1]; in the test on YAP-TEAD) was no more than 1 µM in each case.

As for `C[C@H](NC(=O)c1cnc2c(c1)c1c(c(=O)n2-c2ccc(C(F)(F)F)cc2)CCC1)c1ccccn1` [Example T-245], the IC50 (in test [1]; with YAP-TEAD) was no more than 1 µM in each case.

On to `C[C@H](NC(=O)c1cnc2c(c1)c1cscc1c(=O)n2-c1ccc(C(F)(F)F)cc1)c1ccccn1` [Example T-246], for which the IC50 (in test [1]; in the test on YAP-TEAD) was no more than 1 µM in each case.

Take `C[C@H](NC(=O)c1cnc2c(c1)C1CCCCC1C(=O)N2c1ccc(C(F)(F)F)cc1)c1ccccn1` (stereo partly drawn) [Example T-247]: the IC50 (in test [1]; in the test with YAP-TEAD) was no more than 1 µM each time.

Regarding `C[C@H](NC(=O)c1ccc2c(c1)c1ccccc1c(=O)n2-c1ccc(C(F)(F)F)cn1)c1ccccn1` [Example T-248], the IC50 (in test [1]; in the test with YAP-TEAD) was no more than 1 µM throughout.

Take `C[C@H](NC(=O)c1ccc2c(c1)c1c(c(=O)n2-c2ccc(C(F)(F)F)cc2)CCC1)c1ccccn1` [Example T-249]: the IC50 (in test [1]; with YAP-TEAD) was no more than 1 µM each time.

Consider `C[C@H](NC(=O)c1ccc2c(c1)c1c(c(=O)n2-c2ccc(C(F)(F)F)cc2)CN(Cc2ccccc2)C1)c1ccccn1` [Example T-251], for which the IC50 (in test [1]; in the test with YAP-TEAD) was 1 to 5 µM each time.

For `C[C@H](NC(=O)c1ccc2c(c1)c1ncccc1c(=O)n2-c1ccc(C(F)(F)F)cc1)c1ccccn1` [Example T-252], the IC50 (in test [1]; in the test on YAP-TEAD) was no more than 1 µM in each case.

In the case of `C[C@H](NC(=O)c1ccc2c(c1)c1cccnc1c(=O)n2-c1ccc(C(F)(F)F)cc1)c1ccccn1` [Example T-254], the IC50 (in test [1]; in the test on YAP-TEAD) was no more than 1 µM throughout.

For the compound `Cc1ccc2c(=O)n(-c3ccc(C(F)(F)F)cc3)c3ccc(C(=O)N[C@@H](C)c4ccccn4)cc3c2c1` [Example T-255], the IC50 (in test [1]; with YAP-TEAD) was no more than 1 µM each time.

Take `Cc1ccc2c(c1)c(=O)n(-c1ccc(C(F)(F)F)cc1)c1ccc(C(=O)N[C@@H](C)c3ccccn3)cc21` [Example T-256]: the IC50 (in test [1]; in the test with YAP-TEAD) was no more than 1 µM throughout.

With `Cc1cccc2c1c(=O)n(-c1ccc(C(F)(F)F)cc1)c1ccc(C(=O)N[C@@H](C)c3ccccn3)cc21` [Example T-257], the IC50 (in test [1]; with YAP-TEAD) was no more than 1 µM each time.

For the compound `C[C@H](NC(=O)c1ccc2c(c1)c1c(F)cccc1c(=O)n2-c1ccc(C(F)(F)F)cc1)c1ccccn1` [Example T-258], the IC50 (in test [1]; in the test on YAP-TEAD) was no more than 1 µM throughout.

Regarding `C[C@H](NC(=O)c1ccc2c(c1)c1cc(F)ccc1c(=O)n2-c1ccc(C(F)(F)F)cc1)c1ccccn1` [Example T-259], the IC50 (in test [1]; with YAP-TEAD) was no more than 1 µM throughout.

Turning to `C[C@H](NC(=O)c1ccc2c(c1)c1ccc(F)cc1c(=O)n2-c1ccc(C(F)(F)F)cc1)c1ccccn1` [Example T-260], the results for the IC50 (in test [1]; in the test with YAP-TEAD) were no more than 1 µM and 1 to 5 µM, respectively.

For the compound `C[C@H](NC(=O)c1ccc2c(c1)c1cccc(F)c1c(=O)n2-c1ccc(C(F)(F)F)cc1)c1ccccn1` [Example T-261], the IC50 in test [1] was no more than 1 µM; in the test with YAP-TEAD, 1 to 5 µM.

For the compound `C[C@H](NC(=O)c1ccc2c(c1)c1c(c(=O)n2-c2ccc(C(F)(F)F)nc2)CCC1)c1ccccn1` [Example T-262], the IC50 (in test [1]; in the test with YAP-TEAD) was no more than 1 µM each time.

In the case of `C[C@H](NC(=O)c1ccc2c(c1)c1c(c(=O)n2-c2ccc(C(F)(F)F)nc2)CCCC1)c1ccccn1` [Example T-263], the IC50 (in test [1]; with YAP-TEAD) was no more than 1 µM each time.

Turning to `C[C@H](NC(=O)c1ccc2c(c1)c1cscc1c(=O)n2-c1ccc(C(F)(F)F)nc1)c1ccccn1` [Example T-264], the IC50 (in test [1]; in the test on YAP-TEAD) was no more than 1 µM each time.

Take `CNS(=O)(=O)c1ccc2c(c1)c1cscc1c(=O)n2-c1ccc(C(F)(F)F)cc1` [Example T-265]: the IC50 (in test [1]; with YAP-TEAD) was no more than 1 µM in each case.

With `C[C@H](NC(=O)c1ccc2c(c1)c1c(c(=O)n2C2CCC(F)(F)CC2)CCC1)c1ccccn1` [Example T-266], the IC50 (in test [1]; with YAP-TEAD) was no more than 1 µM in each case.

For `C[C@H](NC(=O)c1ccc2c(c1)c1c(c(=O)n2C2CCC(F)(F)CC2)CCCC1)c1ccccn1` [Example T-267], the IC50 (in test [1]; with YAP-TEAD) was no more than 1 µM throughout.

Consider `C[C@H](NC(=O)c1ccc2c(c1)c1ccccc1c(=O)n2C1CCC(F)(F)CC1)c1ccccn1` [Example T-268], for which the IC50 (in test [1]; in the test on YAP-TEAD) was no more than 1 µM throughout.

As for `C[C@H](NC(=O)c1ccc2c(c1)-c1cscc1CN2C1CCC(C(F)(F)F)CC1)c1ccccn1` (stereo partly drawn) [Example T-269], the IC50 (in test [1]; in the test with YAP-TEAD) was no more than 1 µM throughout.

With `C[C@H](NC(=O)c1ccc2c(c1)c1nn(C)cc1c(=O)n2Cc1ccc(C(F)(F)F)cc1)c1ccccn1` [Example T-270], the IC50 (in test [1]; in the test with YAP-TEAD) was no more than 1 µM in each case.

Turning to `C[C@H](NC(=O)c1ccc2c(c1)c1nn(C)cc1c(=O)n2Cc1ccccc1)c1ccccn1` [Example T-271], the IC50 (in test [1]; in the test on YAP-TEAD) was no more than 1 µM throughout.

As to `C[C@H](NC(=O)c1ccc2c(c1)c1cscc1c(=O)n2-c1ccc(S(F)(F)(F)(F)F)cc1)c1ccccn1` [Example T-274], the IC50 (in test [1]; in the test with YAP-TEAD) was no more than 1 µM throughout.

Turning to `Cc1c(Br)c(=O)n(-c2ccc(C(F)(F)F)cc2)c2ccc(C(=O)N[C@@H](C)c3ccccn3)cc12` [Example T-278], the IC50 (in test [1]; in the test with YAP-TEAD) was no more than 1 µM each time.

For `Cc1c(-c2ccccc2)c(=O)n(-c2ccc(C(F)(F)F)cc2)c2ccc(C(=O)N[C@@H](C)c3ccccn3)cc12` [Example T-279], the IC50 is no more than 1 µM in test [1] and 1 to 5 µM in the test with YAP-TEAD.

Turning to `C=CC(=O)Nc1ccc2c(c1)c(C)cc(=O)n2-c1ccc(C(F)(F)F)cc1` [Example T-280], the IC50 (in test [1]; with YAP-TEAD) was no more than 1 µM throughout.

For `CC1c2ccccc2-c2cc(C(=O)N[C@@H](C)c3ccccn3)ccc2N1c1ccc(C(F)(F)F)cc1` (stereo partly drawn) [Example T-281], the IC50 (in test [1]; in the test with YAP-TEAD) was no more than 1 µM throughout.

As to `C[C@H](NC(=O)c1ccc2c(c1)C1CCCC1CN2c1ccc(C(F)(F)F)cc1)c1ccccc1` (stereo partly drawn) [Example T-283], the IC50 (in test [1]; in the test with YAP-TEAD) was 1 to 5 µM throughout.

As for `C=CC(=O)N[C@@H](C)c1c(C)c2ccccc2n(-c2ccc(C(F)(F)F)cc2)c1=O` [Example T-284], the IC50 (in test [1]; in the test with YAP-TEAD) was 1 to 5 µM throughout.

Regarding `C=CC(=O)NC(C)c1c(C)c2ccccc2n(-c2ccc(C(F)(F)F)cc2)c1=O` (stereo not drawn) [Example T-285], the IC50 (in test [1]; in the test with YAP-TEAD) was 1 to 5 µM in each case.

For `C[C@H](NC(=O)c1ccc2c(c1)c1cocc1c(=O)n2-c1ccc(C(F)(F)F)cc1)c1ccccn1` [Example T-286], the IC50 (in test [1]; in the test on YAP-TEAD) was no more than 1 µM throughout.

`C[C@H](NC(=O)c1ccc2c(c1)c1c(c(=O)n2-c2ccc(C(F)(F)F)cc2)CN(C)C1)c1ccccn1` [Example T-287]: the IC50 (in test [1]; in the test on YAP-TEAD) was no more than 1 µM in each case.

As for `Cc1occ2c(=O)n(-c3ccc(C(F)(F)F)cc3)c3ccc(C(=O)N[C@@H](C)c4ccccn4)cc3c12` [Example T-288], the IC50 (in test [1]; with YAP-TEAD) was no more than 1 µM in each case.

Consider `Cc1oc(C)c2c1c(=O)n(-c1ccc(C(F)(F)F)cc1)c1ccc(C(=O)N[C@@H](C)c3ccccn3)cc21` [Example T-289], for which the IC50 (in test [1]; in the test on YAP-TEAD) was no more than 1 µM throughout.

Take `C[C@H](NC(=O)c1ccc2c(c1)c1c(c(=O)n2-c2ccc(C(F)(F)F)cc2)CCC1F)c1ccccn1` (stereo partly drawn) [Example T-290]: the IC50 (in test [1]; in the test on YAP-TEAD) was no more than 1 µM throughout.

As to `C[C@H](NC(=O)c1ccc2c(c1)c1c(c(=O)n2-c2ccc(C(F)(F)F)cc2)CC(F)C1)c1ccccn1` (stereo partly drawn) [Example T-291], the IC50 (in test [1]; with YAP-TEAD) was no more than 1 µM throughout.

For the compound `C[C@H](NC(=O)c1ccc2c(c1)c1c(c(=O)n2-c2ccc(C(F)(F)F)cc2)C(F)CC1)c1ccccn1` (stereo partly drawn) [Example T-292], the IC50 (in test [1]; in the test with YAP-TEAD) was no more than 1 µM throughout.

`C[C@H](NC(=O)c1ccc2c(c1)c1c(c(=O)n2-c2ccc(C(F)(F)F)cc2)CCC1(F)F)c1ccccn1` [Example T-293]: the IC50 (in test [1]; in the test with YAP-TEAD) was no more than 1 µM in each case.

Consider `C[C@H](NC(=O)c1ccc2c(c1)c1c(c(=O)n2-c2ccc(C(F)(F)F)cc2)CC(F)(F)C1)c1ccccn1` [Example T-294], for which the IC50 (in test [1]; with YAP-TEAD) was no more than 1 µM throughout.

In the case of `C[C@H](NC(=O)c1ccc2c(c1)c1c(c(=O)n2-c2ccc(C(F)(F)F)cc2)C(F)(F)CC1)c1ccccn1` [Example T-295], the IC50 (in test [1]; in the test with YAP-TEAD) was no more than 1 µM in each case.

For `Cc1scc2c(=O)n(-c3ccc(C(F)(F)F)cc3)c3ccc(C(=O)N[C@@H](C)c4ccccn4)cc3c12` [Example T-296], the IC50 (in test [1]; in the test with YAP-TEAD) was no more than 1 µM in each case.

On to `Cc1scc2c1c(=O)n(-c1ccc(C(F)(F)F)cc1)c1ccc(C(=O)N[C@@H](C)c3ccccn3)cc21` [Example T-297], for which the IC50 (in test [1]; in the test with YAP-TEAD) was no more than 1 µM throughout.

With `C[C@H](NC(=O)c1ccc2c(c1)c1c(F)scc1c(=O)n2-c1ccc(C(F)(F)F)cc1)c1ccccn1` [Example T-298], the IC50 (in test [1]; with YAP-TEAD) was no more than 1 µM in each case.

On to `C[C@H](NC(=O)c1ccc2c(c1)c1csc(F)c1c(=O)n2-c1ccc(C(F)(F)F)cc1)c1ccccn1` [Example T-299], for which the IC50 (in test [1]; in the test with YAP-TEAD) was no more than 1 µM each time.
